# Experimental data taken from patent publication US20030007941A1, “Method of treating hair loss using thyromimetic compounds” (priority 2001, published 2003).
# Assays:
# [1] = tested on: C3H/HeN mice; test: Telogen Conversion Assay (topical hair growth); assay type: in vivo; settings: for Hair Growth at LDO (% Animals): animals with hair growth score of 1 or greater; for Hair Growth in 50% of Animals: day when 50% or greater had score of 1 or greater
# Excerpt: The Telogen Conversion Assay measures the potential of a compound (hereinafter referred to as the “test compound”) to convert mice in the resting stage of the hair growth cycle (“telogen”) to the growth stage of the hair growth cycle (“anagen”). Without intending to be limited by theory, there are three principal phases of the hair growth cycle: anagen, catagen and telogen. The telogen period in C3H/HeN mice lasts from approximately 40 days of age until about 75 days of age, when hair growth is synchronized. It is believed that after 75 days of age, hair growth is no longer synchronized. For example, about 40 day-old mice with dark fur (brown or black) may be used in hair growth experiments; melanogenesis occurs in these animals along with hair (fur) growth and the topical application of hair growth inducers may be evaluated in these animals.
# The Telogen Conversion Assay described below is used to screen test compounds for potential hair growth by measuring melanogenesis:
# Objectives: To evaluate and compare the effect of test compounds applied topically on C3H/HeN mice for hair growth.
# Animals: Female C3H/HeN mice, six and a half weeks of age.
# Route and Duration of Treatment: Topical dosing with test compounds on mice is scheduled once or twice daily for five (5) consecutive days for one week to four weeks. Topical dosing begins on Day 0 by applying test compound or vehicle in volumes of 20 μl which keeps the solubilized test compound to a prescribed area of approximately one (1) square centimeter (1 cm^2) in the center of the clipped lower back of each mouse.
# Study Design: Only mice with pink skin or in the telogen phase of the hair growth cycle are selected for inclusion in the study. On Friday, before the experiment starts, the mice are weighed and then anesthetized with isoflurane in a mouse chamber. The hair over the lower dorsal area is clipped with a Wahl clipper using a #40 blade. Care is taken to avoid abrading the skin surface. On the Monday (Day 0) following hair clipping, the mice are again anesthetized with isoflurane and photographed with a digital camera. After digital photographs are taken, the mice receive 20 μl of the respective test compounds applied with an automated pipette to the clipped area between the hind legs. The test compound for each treatment group is evenly spread with the pipette tip to an area approximately 1 square centimeter (1 cm^2), and applied to the same site on subsequent dosing days. All topical treatments are administered as described in the Route and Duration of Treatment Section.
# Observations of the test sites are made three (3) times a week on Monday, Wednesday, and Friday, with observations beginning immediately after the first week of treatment and looking for changes in skin pigment, hair growth, and signs of irritation such as scaling, peeling, scabbing and erythema. Digital photographs are taken on Days 0, 10, 15, 31 and 35 (end of the study) for the dosing groups. Body weights of mice are taken on the first and last days of observation for each test group.
# The scoring system for hair growth is described below:
# 0=No hair growth/pigment change (pink skin);
# 1=Gray/dark skin color (no visible hair growth);
# 2=Sparse/diffuse terminal hair growth;
# 3=dense, normal hair growth.
# ph 2=peripheral hair growth with a score of 2
# ph 3=peripheral hair growth with a score of 3
# ldsh=long, diffuse/scattered hair growth in the dosing site
# Scaling, peeling, scabbing, or erythema are scored as present (+) and absent (−). Any other local (e.g. test compound precipitation) or systemic abnormalities and aberrant hair growth are described on raw data scoring sheet.
# Table 1 is a summary table of the results of the evaluation of five different test compounds in the Telogen Conversion Assay described above. Animals were observed and scored for hair growth using the scoring system for hair growth described above.
# [2] = tested on: AGA mouse; settings: topical, model for androgen dependent hair loss; cited from earlier work
# [3] = tested on: mice and rats; settings: topical; cited from earlier work
# [4] = Experiment 3, 0.1% topical, 2 wks, LDO day 35
# [5] = Experiment 1, 0.001% topical, 1 wk, LDO day 30
# [6] = Experiment 1, 0.01% topical, 1 wk, LDO day 30
# [7] = Experiment 1, 0.1% topical, 1 wk, LDO day 30
# [8] = Experiment 1, 0.3% topical, 1 wk, LDO day 30
# [9] = Experiment 2, 0.001% topical, 1 wk, LDO day 35
# [10] = Experiment 2, 0.01% topical, 1 wk, LDO day 35
# [11] = Experiment 2, 0.1% topical, 1 wk, LDO day 35
# [12] = Experiment 2, 0.3% topical, 1 wk, LDO day 35
# [13] = Experiment 3, 0.1% topical, 1 wk, LDO day 35
structure (smiles),measurement,setting,value
"O=C(c1cc(Oc2c(Cl)cc(-n3ncc(=O)[nH]c3=O)cc2Cl)ccc1O)N1CCc2ccccc2C1 [Cpd #2, 2-{3,5-Dichloro-4-[3-(3,4-dihydro-1H-isoquinoline-2-carbonyl)-4-hydroxy-phenoxy]-phenyl}-2H-[1,2,4]triazine-3,5-dione]",Hair Growth at LDO (% Animals),[1]; [4],100%
same,Hair Growth in 50% of Animals,[1]; [4],11 days
"O=C(c1ccc(F)cc1)c1cc(Oc2c(Cl)cc(-n3ncc(=O)[nH]c3=O)cc2Cl)ccc1O [Cpd #5, 2-{3,5-Dichloro-4-[3-(4-fluoro-benzoyl)-4-hydroxy-phenoxy]-phenyl}-2H-[1,2,4]triazine-3,5-dione]",Hair Growth at LDO (% Animals),[1]; [4],100%
same,Hair Growth in 50% of Animals,[1]; [4],9 days
"N[C@@H](Cc1cc(I)c(Oc2ccc(O)c(I)c2)c(I)c1)C(=O)O [T3, 3,5,3′-triiodo-L-thyronine]",effect on testosterone induced alopecia,[2],inhibitory effect
same,"effect on epidermal proliferation, dermal thickening and hair growth",[3],"stimulates epidermal proloferation, dermal thickening and hair growth"
"Cc1cc(NC(=O)C(=O)O)cc(C)c1Oc1ccc(O)c2c1CCC2 [Cpd #3, N-[4-(7-hydroxy-indan-4-yloxy)-3,5-dimethyl-phenyl]-oxamic acid]",Hair Growth at LDO (% Animals),[1]; [4],20%
same,Hair Growth in 50% of Animals,[1]; [4],>35 days
"O=C(NC1CCCCC1)c1cc(Oc2c(Cl)cc(-n3ncc(=O)[nH]c3=O)cc2Cl)ccc1O [Cpd #1, N-Cyclohexyl-5-[2,6-dichloro-4-(3,5-dioxo-4,5-dihydro-3H-[1,2,4]triazin-2-yl)-phenoxy]-2-hydroxy-benzamide]",Hair Growth at LDO (% Animals),[1]; [5],22%
same,Hair Growth in 50% of Animals,[1]; [5],>30 days
same,Hair Growth at LDO (% Animals),[1]; [6],75%
same,Hair Growth in 50% of Animals,[1]; [6],14 days
same,Hair Growth at LDO (% Animals),[1]; [7],100%
same,Hair Growth in 50% of Animals,[1]; [7],7 days
same,Hair Growth at LDO (% Animals),[1]; [8],100%
same,Hair Growth in 50% of Animals,[1]; [8],9 days
same,Hair Growth at LDO (% Animals),[1]; [9],50%
same,Hair Growth in 50% of Animals,[1]; [9],18 days
same,Hair Growth at LDO (% Animals),[1]; [10],100%
same,Hair Growth in 50% of Animals,[1]; [10],14 days
same,Hair Growth at LDO (% Animals),[1]; [11],100%
same,Hair Growth in 50% of Animals,[1]; [11],7 days
same,Hair Growth at LDO (% Animals),[1]; [12],100%
same,Hair Growth in 50% of Animals,[1]; [12],9 days
same,Hair Growth at LDO (% Animals),[1]; [13],100%
same,Hair Growth in 50% of Animals,[1]; [13],7 days
same,Hair Growth at LDO (% Animals),[1]; [4],100%
same,Hair Growth in 50% of Animals,[1]; [4],7 days
"Cc1cc(-n2ncc(=O)[nH]c2=O)cc(C)c1Oc1ccc(O)c(Cc2ccc(F)cc2)c1 [Cpd #4, 2-{4-[3-(4-Fluoro-benzyl)-4-hydroxy-phenoxy]-3,5-dimethyl-phenyl}-2H-[1,2,4]triazine-3,5-dione]",Hair Growth at LDO (% Animals),[1]; [4],100%
same,Hair Growth in 50% of Animals,[1]; [4],9 days
